Source: patent US8389523B2, “Substituted quinoxaline and an agrochemical composition thereof” (Kumiai Chemical Industry Co., Ltd., priority 2007, dated 2013)

Key:
Assay type in all cases: in vivo
Parameters in all cases: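 grade 0 to 5 of growth suppression where 5 is 90% or more and 0 below 10%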
[1] = tested on: Echinochloa oryzicola Vasing; assay: Herbicidal effects in paddy field soil treatment (Test Example 1); conditions: paddy field soil treatment; 1000 g of the active ingredient per hectare; wettable powder added dropwise on water surface; 21st day after treatment
Description: (§1) Test for Herbicidal Effects in Paddy Field Soil Treatment
(§2) A 100-cm^2 plastic pot was filled with paddy field soil. After puddling and leveling, seeds of Echinochloa oryzicola Vasing, Monochoria vaginalis (Burm. f.) Presl var. plantaginea (Roxb.) Solms-Laub., and Scirpus juncoides Roxb. var. ohwianus. T. Koyama were sowed, and the soil was waterlogged to a water depth of 3 cm. On the next day, a wettable powder formulation prepared according to Preparation Example 1 was diluted with water, and was added dropwise on the water surface. The amount of application was an amount equivalent to 1000 g of the active ingredient per hectare. Thereafter, the plants were grown in a greenhouse, and on the 21st day after the treatment, the herbicidal effects were investigated according to the criteria described in Table 138.

[2] = tested on: Monochoria vaginalis (Burm. f.) Presl var. plantaginea (Roxb.) Solms-Laub.; assay: as above; conditions: paddy field soil treatment; 1000 g of the active ingredient per hectare; wettable powder added dropwise on water surface; 21st day after treatment
Description: as §1, §2

[3] = tested on: Scirpus juncoides Roxb. var. ohwianus. T. Koyama; assay: as above; conditions: paddy field soil treatment; 1000 g of the active ingredient per hectare; wettable powder added dropwise on water surface; 21st day after treatment
Description: as §1, §2

[4] = tested on: Abutilon theophrasti medicus; assay: Herbicidal effects in upland field soil treatment (Test Example 2); conditions: 1000 g active ingredient per hectare, 21st day after treatment, criteria of Table 138
Description: (§3) Test Example 2 Test on Herbicidal Effects in Upland Field Soil Treatment A 80-cm^2 plastic pot was filled with upland field soil. Seeds of Abutilon theophrasti medicus and Amaranthus viridis L. were sowed, and soil was covered. A wettable powder formulation prepared according to Preparation Example 1 was diluted with water, and was uniformly sprayed on the soil surface with a small sprayer, in an amount equivalent to 1000 liters per hectare, such that 1000 g of the active ingredient per hectare was applied. Thereafter, the plants were grown in a greenhouse, and on the 21st day after the treatment, the herbicidal effects were investigated according to the criteria described in the Table 138 shown above.

Amaranthus viridis L. = assay: as above; conditions: 1000 g active ingredient per hectare, 21st day after treatment, criteria of Table 138
Description: as §3

Row | SMILES | Herbicidal effects index, Echinochloa oryzicola Vasing [1] | Herbicidal effects index, Monochoria vaginalis (Burm. f.) Presl var. plantaginea (Roxb.) Solms-Laub. [2] | Herbicidal effects index, Scirpus juncoides Roxb. var. ohwianus. T. Koyama [3] | herbicidal effect (index) on Abutilon theophrasti medicus [4] | herbicidal effect (index) on Amaranthus viridis L. (Amaranthus viridis L.)
1 | COc1ccc2nc(C(=O)C3=C(O)CCCC3=O)c(=O)n(C)c2c1 [I-238] | 5 | 4 | 5 | 5 | 4
2 | O=C1CCCC(O)=C1C(=O)c1nc2ccccc2n(-c2ccc3ccccc3c2)c1=O [I-264] | 4 | 5 | 5 | 4 | 5
3 | CC(C)(C)c1cc(-n2c(=O)c(C(=O)C3=C(O)CCCC3=O)nc3ccccc32)no1 [I-265] | 4 | 5 | 5 | 4 | 5
4 | O=C1CCCC(O)=C1C(=O)c1nc2ccccc2n(-c2ccc(Cl)nn2)c1=O [I-273] | 5 | 5 | 5 | 5 | 5
5 | CN(C(=O)OC(C)(C)C)n1c(=O)c(C(=O)C2=C(O)CCCC2=O)nc2ccccc21 [I-278] | 4 | 5 | 5 | 5 | 5
6 | COc1ccc(-n2c(=O)c(C(=O)C3=C(O)CCCC3=O)nc3c(F)cccc32)cn1 [I-279] | 4 | 5 | 5 | 5 | 5
7 | CCn1c(=O)c(C(=O)C2=C(O)CCCC2=O)nc2c(Cl)cccc21 [I-363] | 5 | 5 | 5 | 5 | 5
8 | Cc1ccc(-n2c(=O)c(C(=O)C3=C(O)CCCC3=O)nc3ccc(C)cc32)nc1 [I-368] | 4 | 5 | 5 | 5 | 5
9 | COc1ccc(-n2c(=O)c(C(=O)C3=C(O)CCCC3=O)nc3c(Cl)cccc32)cn1 [I-379] | 5 | 5 | 5 | 5 | 5
10 | CC(C)c1cccc(-n2c(=O)c(C(=O)C3=C(O)CCCC3=O)nc3ccccc32)c1 [II-29] | 5 | 5 | 5 | 4 | 5
11 | C=CCOc1ccc(-n2c(=O)c(C(=O)C3=C(O)CCCC3=O)nc3ccccc32)cc1 [II-81] | 5 | 5 | 5 | 5 | 5
12 | COc1ccc(-n2c(=O)c(C(=O)C3=C(O)CCCC3=O)nc3ccccc32)c(F)c1 [II-174] | 5 | 5 | 5 | 4 | 5
13 | COc1ccc(-n2c(=O)c(C(=O)C3=C(O)CCCC3=O)nc3ccccc32)cc1C [II-180] | 5 | 5 | 5 | 4 | 5
14 | COc1ccc(-n2c(=O)c(C(=O)C3=C(O)CCCC3=O)nc3c(F)cccc32)cc1 [II-186, 5-fluoro-3-(2-hydroxy-6-oxo-1-cyclohexenecarbonyl)-1-(4-methoxyphenyl)-quinoxalin-2(1H)-one] | 4 | 5 | 5 | 5 | 5
15 | O=C1CCCC(O)=C1C(=O)c1nc2cccc(Cl)c2n(-c2ccccc2)c1=O [II-193] | 5 | 5 | 5 | 5 | 5
16 | COc1ccc(-n2c(=O)c(C(=O)C3=C(O)CCCC3=O)nc3c(Cl)cccc32)cc1 [II-194, 5-chloro-3-(2-hydroxy-6-oxo-1-cyclohexenecarbonyl)-1-(4-methoxyphenyl)-quinoxalin-2(1H)-one] | 4 | 5 | 5 | 4 | 5
17 | Cc1ccc(-n2c(=O)c(C(=O)C3=C(O)CCCC3=O)nc3ccccc32)cc1Cl [II-216] | 5 | 5 | 5 | 4 | 5
18 | CC1CC(C)C(O)=C(C(=O)c2nc3ccccc3n(-c3ccc4c(c3)OCCO4)c2=O)C1=O (stereo not shown) [II-229] | 5 | 5 | 5 | 4 | 5
19 | CC1CC(C)(C)C(O)=C(C(=O)c2nc3ccccc3n(-c3ccc4c(c3)OCCO4)c2=O)C1=O (stereo not shown) [II-230] | 4 | 5 | 5 | 4 | 5
20 | O=C1CCCC(O)=C1C(=O)c1nc2ccccc2n(-c2ccc3c(c2)OCCCO3)c1=O [II-232] | 4 | 5 | 5 | 4 | 5
